The compounds below were run against PAR4 (Homo sapiens (Human), UniProt Q96RI0) (assay: FLIPR assay in PAR4-expressing HEK293 cells (PAR4 antagonist activity, calcium mobilization)). Conditions: H-Ala-Phe(4-F)-Pro-Gly-Trp-Leu-Val-Lys-Asn-Gly-NH2-induced calcium mobilization.
Format: cell-based
Procedure, shortened: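 HEK293 EBNA cells stably expressing human PAR4 (also endogenous PAR1) preincubated 30 min at room temperature with compound in HBSS/10 mM HEPES, 0.67% DMSO final. PAR4 agonist peptide then added and intracellular calcium mobilization monitored by fluorescence.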

PAR4, sequence (Q96RI0 18-385): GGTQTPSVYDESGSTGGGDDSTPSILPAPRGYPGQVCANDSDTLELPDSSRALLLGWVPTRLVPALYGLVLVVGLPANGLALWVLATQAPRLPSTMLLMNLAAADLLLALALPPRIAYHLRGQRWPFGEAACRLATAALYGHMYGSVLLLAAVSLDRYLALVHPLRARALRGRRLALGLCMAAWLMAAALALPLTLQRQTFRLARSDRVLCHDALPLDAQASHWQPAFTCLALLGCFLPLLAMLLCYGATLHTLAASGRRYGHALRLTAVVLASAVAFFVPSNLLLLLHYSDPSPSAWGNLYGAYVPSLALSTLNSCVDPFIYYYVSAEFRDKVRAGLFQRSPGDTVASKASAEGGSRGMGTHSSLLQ

Row | Compound | EC50
1 | COc1cc(OCc2csc(C(C)(O)C3CCCCC3)n2)c2cc(-c3cn4nc(OC)sc4n3)oc2c1 (centres unmarked) [Example 142] | 310 pM
2 | COc1cc(OCc2csc(C(C)(O)C(F)(F)F)n2)c2cc(-c3cn4nc(OC)sc4n3)oc2c1 (centres unmarked) [Example 143] | 390 pM
3 | COc1cc(OCc2csc(C(O)(C3CC3)C3CC3)n2)c2cc(-c3cn4nc(OC)sc4n3)oc2c1 [Example 144] | 260 pM
4 | COc1cc(OCc2csc(C(O)(C3CCCCC3)C(F)(F)F)n2)c2cc(-c3cn4nc(OC)sc4n3)oc2c1 (centres unmarked) [Example 146] | 730 pM
5 | COCCC(C)(F)c1nc(COc2cc(OC)cc3oc(-c4cn5nc(OC)sc5n4)cc23)cs1 (centres unmarked) [Example 147] | 960 pM
6 | COc1cc(OCc2csc(C3=CCC(C(=O)OC(C)(C)C)CC3)n2)c2cc(-c3cn4nc(OC)sc4n3)oc2c1 (centres unmarked) [Example 148, tert-Butyl 4-(4-(((6-methoxy-2-(2-methoxyimidazo[2,1-b][1,3,4]thiadiazol-6-yl)benzofuran-4-yl)oxy)methyl)thiazol-2-yl)cyclohex-3-enecarboxylate] | 370 pM
7 | COc1cc(OCc2csc(C3(O)CCC(C(=O)OC(C)(C)C)CC3)n2)c2cc(-c3cn4nc(OC)sc4n3)oc2c1 (centres unmarked) [Example 149, tert-Butyl 4-hydroxy-4-(4-(((6-methoxy-2-(2-methoxyimidazo[2,1-b][1,3,4]thiadiazol-6-yl)benzofuran-4-yl)oxy)methyl)thiazol-2-yl)cyclohexanecarboxylate] | 4100 pM
8 | COc1cc(OCc2csc(C3(O)CCC(C(=O)O)CC3)n2)c2cc(-c3cn4nc(OC)sc4n3)oc2c1 (centres unmarked) [Example 150, 4-Hydroxy-4-(4-(((6-methoxy-2-(2-methoxyimidazo[2,1-b][1,3,4]thiadiazol-6-yl)benzofuran-4-yl)oxy)methyl)thiazol-2-yl)cyclohexanecarboxylic acid] | 920 pM
9 | COc1cc(OCc2csc(C3(c4ccc(Br)cc4)CCOCC3)n2)c2cc(-c3cn4nc(OC)sc4n3)oc2c1 [Example 153, 6-(4-((2-(4-(4-Bromophenyl)tetrahydro-2H-pyran-4-yl)thiazol-4-yl)methoxy)-6-methoxybenzofuran-2-yl)-2-methoxyimidazo[2,1-b][1,3,4]thiadiazole] | 1700 pM
10 | COc1cc(OCc2csc(C3(c4ccc(Cl)cc4)CCOCC3)n2)c2cc(-c3cn4nc(OC)sc4n3)oc2c1 [Example 154, 6-(4-((2-(4-(4-Chlorophenyl)tetrahydro-2H-pyran-4-yl)thiazol-4-yl)methoxy)-6-methoxybenzofuran-2-yl)-2-methoxyimidazo[2,1-b][1,3,4]thiadiazole] | 1100 pM
11 | COc1cc(OCc2csc(C3(c4cccc(Cl)c4)CCOCC3)n2)c2cc(-c3cn4nc(OC)sc4n3)oc2c1 [Example 155, 6-(4-((2-(4-(3-Chlorophenyl)tetrahydro-2H-pyran-4-yl)thiazol-4-yl)methoxy)-6-methoxybenzofuran-2-yl)-2-methoxyimidazo[2,1-b][1,3,4]thiadiazole] | 620 pM
12 | COc1cc(OCc2csc(C3(c4ccccc4F)CCOCC3)n2)c2cc(-c3cn4nc(OC)sc4n3)oc2c1 [Example 156, 6-(4-((2-(4-(2-Fluorophenyl)tetrahydro-2H-pyran-4-yl)thiazol-4-yl)methoxy)-6-methoxybenzofuran-2-yl)-2-methoxyimidazo[2,1-b][1,3,4]thiadiazole] | 520 pM
13 | COc1cc(OCc2csc(C3(c4ccc(C)cc4)CCOCC3)n2)c2cc(-c3cn4nc(OC)sc4n3)oc2c1 [Example 157, 2-Methoxy-6-(6-methoxy-4-((2-(4-(p-tolyl)tetrahydro-2H-pyran-4-yl)thiazol-4-yl)methoxy)benzofuran-2-yl)imidazo[2,1-b][1,3,4]thiadiazole] | 3600 pM
14 | COc1cccc(C2(c3nc(COc4cc(OC)cc5oc(-c6cn7nc(OC)sc7n6)cc45)cs3)CCOCC2)c1 [Example 158, 2-Methoxy-6-(6-methoxy-4-((2-(4-(3-methoxyphenyl)tetrahydro-2H-pyran-4-yl)thiazol-4-yl)methoxy)benzofuran-2-yl)imidazo[2,1-b][1,3,4]thiadiazole] | 950 pM

Source: US9688695B2, “Imidazothiadiazole and imidazopyrazine derivatives as protease activated receptor 4 (PAR4) inhibitors for treating platelet aggregation” (BRISTOL-MYERS SQUIBB COMPANY, priority 2012, dated 2017)
